From patent publication US6777420B2, “Heterocyclic antibacterial compounds” (Microbiotix, Inc., priority 2001, dated 2004)
Values after ≈ are worked out from the molar mass of the structure shown. Marks after values point to notes of the source that are not given here.

Assays:
B. subtilis = assay: MIC determination, B. subtilis; type: cell-based, Bacillus subtilis
Procedure: (§1) Minimal Inhibitory Concentration (MIC) determinations. […] Each drug is evaluated at five concentrations, with five data points at each dilution. MIC values (μg/ml) were determined against actively growing cultures in Heart-Brain Infusion (HBI) medium. Cell growth in cultures supplemented with a test compound was calculated as a percent of control at OD 600 nm after 16 to 18 hours at 37° C. This plate format conserves test compound and provides precise, quantitative data with low standard deviation determinations.

S. aureus = assay: MIC determination, S. aureus; type: cell-based, Staphylococcus aureus
Procedure: as §1

S. aureus (Smith) = assay: MIC determination, S. aureus (Smith); type: cell-based, Staphylococcus aureus
Procedure: as §1

E. fecalis = assay: MIC determination, E. fecalis; type: cell-based, Enterococcus fecalis
Procedure: as §1, with “C.” for “C. This plate format conserves test compound and provides precise, quantitative data with low standard deviation determinations.”

E. fecium = assay: MIC determination, E. fecium; type: cell-based, Enterococcus fecium
Procedure: as §1, with “C.” for “C. This plate format conserves test compound and provides precise, quantitative data with low standard deviation determinations.”

E. coli = assay: MIC determination, E. coli; type: cell-based, Escherichia coli
Procedure: as §1

[1] = system: MSSA108 (methicillin sensitive S. aureus strain); assay: MIC determination, MSSA108; type: cell-based; conditions: Staphylococcus aureus, read-out: MIC (μg/ml) MSSA108
Procedure: as §1
Compounds were also tested for antibacterial activity against certain clinically relevant strains, e.g., methicillin sensitive (MSSA) and methicillin resistant (MRSA) strains of Staphylococcus aureus.

[2] = system: Staphylococcus aureus (Smith strain); assay: Protection of mice from lethal intraperitoneal infection, compound given intraperitoneally; type: in vivo; conditions: 15 minutes after infection
Procedure: FIG. 1B is a bar graph showing number of survivors in each group of five mice at 24 hours after intraperitoneal infection with 1×10^8 colony forming units (CFU) of Staphylococcus aureus (Smith strain) and followed 15 minutes post infection by administration of Compound 2 at a dose of 0 (Vehicle Control), 1, 3, and 10 mg of compound per kg of body weight. Vancomycin at a dose of 10 mg/kg of body weight served as a positive control for antibiotic activity. See text for details.
FIG. 2B is a bar graph showing number of survivors of a group of five mice at 24 hours after intraperitoneal infection with Staphylococcus aureus (Smith strain) as in FIG. 1B, except that Compound 10 was administered to each animal at 0, 0.1, 0.3, 1.0, 3.0, and 10 mg/kg body weight at 15 minutes post infection. Controls were the same as in FIG. 1B. See text for details.
FIG. 3B is a bar graph showing number of survivors in each group of five mice at 24 hours after intraperitoneal infection with Staphylococcus aureus (Smith strain) as in FIG. 1, except that 15 minutes after infection, the mice in each group received a dose of 0.5 mg/kg of body weight of compound 10, 4, 5, 6, 7, 8, or 12. Controls were the same as in FIG. 1. See text for details.
(§2) Swiss Webster mice, ca. 20 g each, were infected with Staphylococcus aureus (Smith strain) by the intraperitoneal route. Test compounds (2, 4, 5, 6, 7, 8, 10, 12) were dissolved in 10% dimethylsulfoxide in peanut oil to a concentration of 2 mg/ml. Vancomycin was used as positive control drug (i.e., protection from lethal infection). Fifteen minutes after infection, test compounds, vancomycin, or vehicle alone were given intraperitoneally to groups of five mice each. Animals were monitored for three days, and the number of mice surviving was tabulated for each treatment.

[3] = system: enterococci or staphylococci strains, including MRSA and VRE strains; assay: In vivo activity of Compound 70 against intraperitoneal challenge, overall statement; conditions: mice; administration from distant parenteral sites (i.e., iv, sc, or im)
Procedure: (§3) Using the same basic procedure as described above, the in vivo efficacy of Compound 70 was also evaluated at various doses in mice infected with S. aureaus (Smith), MRSA 1094, Enterococcus faecalis, or vancomycin-resistant Enterococcus faecalis strain VRE 700802. […] Negative controls were mice infected that received no treatment. Mucin was employed as an adjuvant to facilitate bacterial infection in mice, where indicated.

B. subtilis Pol IIIC = target: T1, B. subtilis Pol IIIC (Bacillus subtilis, UniProt P13267); assay: Polymerase IIIC (Pol IIIC) assay, determination of Ki values; type: biochemical; conditions: Ki = concentration that reduces control polymerase activity by 50 percent
T1 construct: made in house
Procedure: Polymerase IIIC (Pol IIIC) assay. DNA polymerase activity (or inhibition thereof) was measured in a 96-well plate format. B. subtilis Pol IIIC was isolated as described by Hammond and Brown (Protein Expr. Purif., 3: 65-70 (1992)). Each 25 μl assay contained 30 mM Tris, pH 7.5, 10 mM magnesium acetate, 4 mM dithiothreitol, 20% glycerol, with 25 μM dATP, dCTP, dGTP and 10 μM dTTP (3H-labelled at 1.44 Ci/mmole) and 0.4 mg/ml activated calf thymus DNA as substrates, as described previously (see Barnes et al, op. cit). Assays were initiated by the addition of 0.025 to 0.06 units of enzyme 1 unit is the amount required to incorporate 250 pmoles of [^3H] dTMP in a standard assay), incubated for 10 minutes at 30° C. and terminated by the addition of 200 μl of cold 10% trichloroacetic acid (TCA), 10 mM sodium pyrophosphate. Precipitated labeled DNA was collected on glass fiber filter plates, washed, dried, and counted in a liquid scintillation counter.
Determination of Ki values. DNA polymerase activity was measured in a 96-well plate format in the absence of dGTP or dATP, depending on the structure of the test compound. Each 25 μl assay contained 30 mM Tris, pH 7.5, 10 mM magnesium acetate, 4 mM dithiothreitol, 20% glycerol, with 25 μM dATP, dCTP, and 10 μM dTTP (3H-labelled at 1.44 Ci/mmole) and 0.4 mg/ml activated calf thymus DNA as substrates, as described previously. To each well were added 2 μl of compound solution to give final concentrations ranging from 20-0.027 μg/ml in the assay. Assays were initiated by the addition of 0.025 to 0.06 units of enzyme (1 unit is the amount required to incorporate 250 pmoles of [^3H] dTMP in a standard assay), incubated for 10 minutes at 30° C. and terminated by the addition of 200 μl of cold 10% trichloroacetic acid, 10 mM sodium pyrophosphate. Precipitated labeled DNA was collected on glass fiber filter plates, washed, dried, and counted in a liquid scintillation counter. Ki is the concentration of test compound that reduces the control polymerase mc activity by 50 percent.

[4] = system: vancomycin-resistant Enterococcus faecalis strain VRE 700802; assay: In vivo efficacy of Compound 70 in mouse model, VRE 700802; conditions: mice, 3 × 10^8 CFU/mouse +5% Mucin; positive control, 100 mg/kg, t = 0
Procedure: as §2, §3

[5] = system: Enterococcus faecalis (ATCC 29212); assay: In vivo efficacy of Compound 70 in mouse model, Enterococcus faecalis; conditions: mice, 3 × 10^7 CFU/mouse +5% Mucin; positive control, 100 mg/kg, t = 0
Procedure: as §2, §3

[6] = Swiss Webster mice, dosage range 1-10 mg/kg body weight
[7] = HBI medium, 16 to 18 hours at 37° C.

T1 sequence (P13267 whole entry): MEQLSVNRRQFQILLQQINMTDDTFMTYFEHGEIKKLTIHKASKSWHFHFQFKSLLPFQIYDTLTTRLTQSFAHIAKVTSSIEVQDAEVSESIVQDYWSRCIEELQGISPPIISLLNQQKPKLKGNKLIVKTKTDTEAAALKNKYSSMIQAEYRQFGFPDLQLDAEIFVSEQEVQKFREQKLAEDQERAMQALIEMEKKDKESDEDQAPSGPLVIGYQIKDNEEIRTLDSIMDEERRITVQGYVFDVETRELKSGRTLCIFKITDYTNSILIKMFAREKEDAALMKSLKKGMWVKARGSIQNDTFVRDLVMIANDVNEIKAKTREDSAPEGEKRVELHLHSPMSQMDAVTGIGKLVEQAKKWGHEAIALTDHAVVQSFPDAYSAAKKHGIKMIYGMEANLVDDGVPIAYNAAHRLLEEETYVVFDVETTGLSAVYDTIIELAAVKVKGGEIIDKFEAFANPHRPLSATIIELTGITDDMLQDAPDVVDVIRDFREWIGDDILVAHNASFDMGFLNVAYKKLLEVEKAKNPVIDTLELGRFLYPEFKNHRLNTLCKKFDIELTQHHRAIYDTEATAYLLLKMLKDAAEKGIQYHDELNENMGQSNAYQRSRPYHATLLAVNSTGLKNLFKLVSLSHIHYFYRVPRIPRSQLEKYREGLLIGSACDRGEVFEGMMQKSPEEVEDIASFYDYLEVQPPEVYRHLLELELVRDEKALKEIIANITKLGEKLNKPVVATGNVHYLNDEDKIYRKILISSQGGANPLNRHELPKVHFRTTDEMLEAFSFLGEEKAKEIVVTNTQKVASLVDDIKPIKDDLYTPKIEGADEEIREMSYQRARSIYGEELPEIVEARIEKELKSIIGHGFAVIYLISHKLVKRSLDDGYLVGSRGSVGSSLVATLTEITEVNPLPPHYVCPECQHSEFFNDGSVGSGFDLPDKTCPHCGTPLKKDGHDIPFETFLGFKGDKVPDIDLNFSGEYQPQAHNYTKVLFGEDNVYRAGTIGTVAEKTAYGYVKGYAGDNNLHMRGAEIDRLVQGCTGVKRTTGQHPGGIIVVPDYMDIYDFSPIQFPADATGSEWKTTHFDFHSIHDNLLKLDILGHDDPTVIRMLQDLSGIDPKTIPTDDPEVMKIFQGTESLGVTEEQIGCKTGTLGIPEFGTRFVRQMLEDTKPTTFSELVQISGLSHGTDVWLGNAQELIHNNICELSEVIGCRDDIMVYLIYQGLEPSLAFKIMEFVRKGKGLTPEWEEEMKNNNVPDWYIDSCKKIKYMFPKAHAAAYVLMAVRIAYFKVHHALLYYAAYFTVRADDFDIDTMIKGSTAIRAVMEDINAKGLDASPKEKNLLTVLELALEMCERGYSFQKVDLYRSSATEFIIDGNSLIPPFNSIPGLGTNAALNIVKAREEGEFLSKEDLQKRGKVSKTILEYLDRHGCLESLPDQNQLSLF

Compound: 3-{5-[1-(1-ethyl-3-carboxy-4-oxo-6,8-difluoro-7-quinolyl)-3-(1,3-diazabicyclononyl)]pentyl}-6-(3-ethyl-4-methylanilino)uracil [Compound 88]
- MIC (μg/ml) B. subtilis (B. subtilis; second table): 0.625 µg/mL
- MIC (μg/ml) S. aureus (S. aureus; second table): 1.25 µg/mL
- MIC (μg/ml) S. a. (Smith) (S. aureus (Smith); second table): 1.25 µg/mL
- MIC (μg/ml) E. fecalis (E. fecalis; second table): 2.5 µg/mL
- MIC (μg/ml) E. fecium (E. fecium; second table): 5 µg/mL
- MIC (μg/ml) E. coil (E. coli; second table): >20 µg/mL

Compound: CCc1cc(Nc2cc(=O)n(CCCCN3CCN(c4cc5c(cc4F)c(=O)c(C(=O)O)cn5CC)CC3)c(=O)[nH]2)ccc1C [Compound 1, 3-{4-[1-(1-ethyl-3-carboxy-4-oxo-6-fluoro-7-quinolyl)-4-piperazinyl]butyl}-6-(3-ethyl-4-methylanilino)uracil]
- MIC (S. aureus; Staphylococcus aureus, table of clinically relevant strains, read-out: MIC (μg/ml) S. aureus): 0.313 µg/mL (≈ 0.506 µM)
- MIC (S. aureus (Smith); Staphylococcus aureus, table of clinically relevant strains, read-out: MIC (μg/ml) S. aureus (Smith)): 0.313 µg/mL (≈ 0.506 µM)
- MIC [1]: 0.313 µg/mL (≈ 0.506 µM)

Compound: CCc1cc(Nc2cc(=O)n(CCCCN3CCN(c4cc5c(cc4F)c(=O)c(C(=O)O)cn5C4CC4)CC3)c(=O)[nH]2)ccc1C [Compound 2, 3-{4-[1-(1-cyclopropyl-3-carboxy-4-oxo-6-fluoro-7-quinolyl)-4-piperazinyl]butyl}-6-(3-ethyl-4-methylanilino)uracil]
- protection of infected mice (group of five) [2, 6]: protection was afforded all five infected mice

Compound: CCc1cc(Nc2cc(=O)n(CCCCN3CCN(c4cc5c(cc4F)c(=O)c(C(=O)O)cn5C4CC4)CC3)c(=O)[nH]2)ccc1C.CS(=O)(=O)O [Compound 10, 3-{4-[1-(1-cyclopropyl-3-carboxy-4-oxo-6-fluoro-7-quinolyl)-4-piperazinyl]butyl}-6-(3-ethyl-4-methylanilino)uracil methanesulfonate]
- infected mice protected from death (group of five) ([2]; dose 0.3 mg per kg body weight): one of five
- protection of infected mice (group of five) ([2]; dose of 1 mg/kg or higher): complete protection
- protection of infected mice (group of five) [2, 6]: provided protection in the same dosage range as Compound 2

Compound: CCc1cc(Nc2cc(=O)n(CCCCN3CCN(c4c(F)cc5c(=O)c(C(=O)O)cn(C6CC6)c5c4F)CC3C)c(=O)[nH]2)ccc1C (centres unmarked) [Compound 70, 3-{4-[1-(1-cyclopropyl-3-carboxy-4-oxo-6,8-difluoro-7-quinolyl)-4-(3-methylpiperazinyl)]butyl}-6-(3-ethyl-4-methylanilino)uracil]
- activity against intraperitoneal challenge [3]: dose-related activity

Compound: CCc1cc(Nc2ccc(NC(=O)N3CCN(c4cc5c(cc4F)c(=O)c(C(=O)O)cn5CC)CC3)c(=O)[nH]2)ccc1C [Compound 77, 3-{[1-(1-ethyl-3-carboxy-4-oxo-6-fluoro-7-quinolyl)-4-piperazinyl]carboxamido}-6-(3-ethyl-4-methylanilino)-2-pyridone]
- Ki (B. subtilis Pol IIIC; second table): 8 µM

Compound: CCc1cc(Nc2cc(=O)n(CCCCO)c(=O)[nH]2)ccc1C [HB-EMAU, reference compound]
- Ki (B. subtilis Pol IIIC): 0.066 µM
- MIC (μg/ml) B. subtilis (B. subtilis; [7]): 1.25 µg/mL (≈ 3.94 µM)
- MIC (μg/ml) S. aureus (S. aureus; [7]): 10 µg/mL (≈ 31.5 µM)
- MIC (μg/ml) S. aureus (Smith) (S. aureus (Smith); [7]): 5 µg/mL (≈ 15.8 µM)
- MIC (μg/ml) E. fecalis (E. fecalis; [7]): 5 µg/mL (≈ 15.8 µM)
- MIC (μg/ml) E. fecium (E. fecium; [7]): 5 µg/mL (≈ 15.8 µM)
- MIC (μg/ml) E. coli (E. coli; [7]): >80 µg/mL

Compound: O=C(O)c1cn(C2CC2)c2cc(N3CCNCC3)c(F)cc2c1=O [cflxn, ciprofloxacin]
- Ki (μM) Pol IIIC (B. subtilis Pol IIIC): inactive
- % Survival at 72 hours [4]: 90% (9/10)**

Compound: CCn1cc(C(=O)O)c(=O)c2cc(F)c(N3CCNCC3)cc21 [nflxn, norfloxacin]
- Ki (μM) Pol IIIC (B. subtilis Pol IIIC): inactive

Compound: CN[C@H](CC(C)C)C(=O)N[C@H]1C(=O)N[C@@H](CC(N)=O)C(=O)N[C@H]2C(=O)N[C@H]3C(=O)N[C@H](C(=O)N[C@H](C(=O)O)c4cc(O)cc(O)c4-c4cc3ccc4O)[C@H](O)c3ccc(c(Cl)c3)Oc3cc2cc(c3O[C@@H]2O[C@H](CO)[C@@H](O)[C@H](O)[C@H]2O[C@H]2C[C@](C)(N)[C@H](O)[C@H](C)O2)Oc2ccc(cc2Cl)[C@H]1O [vancomycin]
- % Survival at 72 hours [5]: 100% (10/10)**
